Assay results taken from PubChem BioAssay (NCI).
Where “and” joins values, the source holds several entries; their conditions need not be identical. Equal entries are not always repeated.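 Protocol summary: plate cells (96-well), add compound at 5 concentrations, incubate 48 h, interpolate endpoints linearly. Here, GI50 denotes the concentration required for 50% inhibition of growth. TGI: total growth inhibition.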

Experiments:
Assay in all cases: growth of human tumour cells (NCI), 48 h
UACC-62 melanoma = tested on: UACC-62 melanoma
786-0 renal = tested on: 786-0 renal
RPMI-8226 leukemia = tested on: RPMI-8226 leukemia
HOP-92 NSCLC = tested on: HOP-92 NSCLC
NCI-H226 lung = tested on: NCI-H226 lung
MDA-MB-231 breast = tested on: MDA-MB-231 breast
SR leukemia = tested on: SR leukemia
SF-295 CNS = tested on: SF-295 CNS
HCT-15 colon = tested on: HCT-15 colon
SF-539 CNS = tested on: SF-539 CNS
SK-MEL-5 melanoma = tested on: SK-MEL-5 melanoma
OVCAR-5 ovarian = tested on: OVCAR-5 ovarian
SW-620 colon = tested on: SW-620 colon
HL-60(TB) leukemia = tested on: HL-60(TB) leukemia
IGROV1 ovarian = tested on: IGROV1 ovarian
HS 578T breast = tested on: HS 578T breast
OVCAR-8 ovarian = tested on: OVCAR-8 ovarian
OVCAR-3 ovarian = tested on: OVCAR-3 ovarian
DU-145 prostate = tested on: DU-145 prostate
NCI-H23 lung = tested on: NCI-H23 lung
CCRF-CEM leukemia = tested on: CCRF-CEM leukemia
KM12 colon = tested on: KM12 colon
CAKI-1 renal = tested on: CAKI-1 renal
NCI-H522 lung = tested on: NCI-H522 lung
BT-549 breast = tested on: BT-549 breast
SN12C renal = tested on: SN12C renal
TK-10 renal = tested on: TK-10 renal
SK-MEL-2 melanoma = tested on: SK-MEL-2 melanoma
SF-268 CNS = tested on: SF-268 CNS
ACHN renal = tested on: ACHN renal
M14 melanoma = tested on: M14 melanoma
MOLT-4 leukemia = tested on: MOLT-4 leukemia
EKVX NSCLC = tested on: EKVX NSCLC
PC-3 prostate = tested on: PC-3 prostate
NCI/ADR-RES ovarian = tested on: NCI/ADR-RES ovarian
MCF7 breast = tested on: MCF7 breast
MDA-MB-435 = tested on: MDA-MB-435
K-562 leukemia = tested on: K-562 leukemia
A549 NSCLC = tested on: A549 NSCLC
NCI-H460 lung = tested on: NCI-H460 lung
UO-31 renal = tested on: UO-31 renal
HCC-2998 colon = tested on: HCC-2998 colon
UACC-257 melanoma = tested on: UACC-257 melanoma
COLO 205 colon = tested on: COLO 205 colon
LOX IMVI melanoma = tested on: LOX IMVI melanoma
MALME-3M melanoma = tested on: MALME-3M melanoma
T-47D breast = tested on: T-47D breast
HCT-116 colon = tested on: HCT-116 colon
RXF 393 renal = tested on: RXF 393 renal
A498 renal = tested on: A498 renal
SNB-75 CNS = tested on: SNB-75 CNS
HOP-62 NSCLC = tested on: HOP-62 NSCLC
SK-OV-3 ovarian = tested on: SK-OV-3 ovarian

Compound: NS(=O)(=O)c1ccc(-n2nc(-c3ccc(Cl)cc3)cc2-c2cc(O)ccc2O)cc1
- GI50 (UACC-62 melanoma): 7.3 µM
- TGI (UACC-62 melanoma): 19.2 µM
- GI50 (786-0 renal): 5.18 µM
- TGI (786-0 renal): 16.7 µM
- GI50 (RPMI-8226 leukemia): 3.15 µM
- TGI (RPMI-8226 leukemia): 11.7 µM
- GI50 (HOP-92 NSCLC): 16 µM
- TGI (HOP-92 NSCLC): 38.9 µM
- GI50 (NCI-H226 lung): 10.1 µM
- TGI (NCI-H226 lung): 24.5 µM
- GI50 (MDA-MB-231 breast): 3.32 µM
- TGI (MDA-MB-231 breast): 13.9 µM
- GI50 (SR leukemia): 3.85 µM
- TGI (SR leukemia): > 100 µM
- GI50 (SF-295 CNS): 17.6 µM
- TGI (SF-295 CNS): 33.5 µM
- GI50 (HCT-15 colon): 6.28 µM
- TGI (HCT-15 colon): 19.2 µM
- GI50 (SF-539 CNS): 25.4 µM
- TGI (SF-539 CNS): 46.7 µM
- GI50 (SK-MEL-5 melanoma): 15.2 µM
- TGI (SK-MEL-5 melanoma): 32.3 µM
- GI50 (OVCAR-5 ovarian): 15.7 µM
- TGI (OVCAR-5 ovarian): 31.1 µM
- GI50 (SW-620 colon): 23.4 µM
- TGI (SW-620 colon): 89.4 µM
- GI50 (HL-60(TB) leukemia): 10 µM
- TGI (HL-60(TB) leukemia): 69 µM
- GI50 (IGROV1 ovarian): 25.4 µM
- TGI (IGROV1 ovarian): > 100 µM
- GI50 (HS 578T breast): 34.2 µM
- TGI (HS 578T breast): 78.9 µM
- GI50 (OVCAR-8 ovarian): 13.3 µM
- TGI (OVCAR-8 ovarian): 58.6 µM
- GI50 (OVCAR-3 ovarian): 4.34 µM
- TGI (OVCAR-3 ovarian): 13.7 µM
- GI50 (DU-145 prostate): 18.5 µM
- TGI (DU-145 prostate): 35.8 µM
- GI50 (NCI-H23 lung): 18.3 µM
- TGI (NCI-H23 lung): 34.6 µM
- GI50 (CCRF-CEM leukemia): 3.14 µM
- TGI (CCRF-CEM leukemia): 66.6 µM
- GI50 (KM12 colon): 13.4 µM
- TGI (KM12 colon): 32.6 µM
- GI50 (CAKI-1 renal): 7.9 µM
- TGI (CAKI-1 renal): 22.8 µM
- GI50 (NCI-H522 lung): 2.58 µM
- TGI (NCI-H522 lung): 6.71 µM
- GI50 (BT-549 breast): 23.9 µM
- TGI (BT-549 breast): 58.3 µM
- GI50 (SN12C renal): 8.11 µM
- TGI (SN12C renal): 20.6 µM
- GI50 (TK-10 renal): 10.9 µM
- TGI (TK-10 renal): 26.1 µM
- GI50 (SK-MEL-2 melanoma): 33.5 µM
- TGI (SK-MEL-2 melanoma): > 100 µM
- GI50 (SF-268 CNS): 10.5 µM
- TGI (SF-268 CNS): 26.2 µM
- GI50 (ACHN renal): 13.4 µM
- TGI (ACHN renal): 26.2 µM
- GI50 (M14 melanoma): 5.82 µM
- TGI (M14 melanoma): 17.4 µM
- GI50 (MOLT-4 leukemia): 5.15 µM
- TGI (MOLT-4 leukemia): > 100 µM
- GI50 (EKVX NSCLC): 22.6 µM
- TGI (EKVX NSCLC): 45.6 µM
- GI50 (PC-3 prostate): 8.37 µM
- TGI (PC-3 prostate): 23.8 µM
- GI50 (NCI/ADR-RES ovarian): 20.9 µM
- TGI (NCI/ADR-RES ovarian): 47.6 µM
- GI50 (MCF7 breast): 5.97 µM
- TGI (MCF7 breast): > 100 µM
- GI50 (MDA-MB-435): 11.7 µM
- TGI (MDA-MB-435): 28 µM
- GI50 (K-562 leukemia): 4.9 µM
- TGI (K-562 leukemia): 21.2 µM
- GI50 (A549 NSCLC): 12.2 µM
- TGI (A549 NSCLC): 30.4 µM
- GI50 (NCI-H460 lung): 7.81 µM
- TGI (NCI-H460 lung): > 100 µM
- GI50 (UO-31 renal): 26.5 µM
- TGI (UO-31 renal): > 100 µM
- GI50 (HCC-2998 colon): 17.2 µM
- TGI (HCC-2998 colon): 31.2 µM
- GI50 (UACC-257 melanoma): 11.1 µM
- TGI (UACC-257 melanoma): 25.6 µM

Compound: O=C1NC2C(CC(O)C(O)C2O)c2cc3c(c(O)c21)OCO3 (centres undefined)
- GI50 (COLO 205 colon): 0.0255 µM and < 0.01 µM
- TGI (COLO 205 colon): 0.127 µM and 0.0156 µM

Compound: C[C@]12C[C@H](CCCCCCNCCOC(=O)NCCCc3ccc(N(CCCl)CCCl)cc3)C3=C4CCC(=O)C=C4CCC3C1CC[C@@H]2O (some centres undefined)
- GI50 (786-0 renal): 0.841 µM
- TGI (786-0 renal): 3.89 µM
- GI50 (RPMI-8226 leukemia): 0.304 µM
- TGI (RPMI-8226 leukemia): 1.06 µM
- GI50 (COLO 205 colon): 1.45 µM
- TGI (COLO 205 colon): 3.9 µM
- GI50 (NCI-H226 lung): 2.15 µM
- TGI (NCI-H226 lung): 4.15 µM
- GI50 (MDA-MB-231 breast): 2.01 µM
- TGI (MDA-MB-231 breast): 3.44 µM
- GI50 (SF-295 CNS): 2.07 µM
- TGI (SF-295 CNS): > 100 µM
- GI50 (SF-539 CNS): 1.4 µM
- TGI (SF-539 CNS): 3.33 µM
- GI50 (SK-MEL-5 melanoma): 1.47 µM
- TGI (SK-MEL-5 melanoma): 3.02 µM
- GI50 (OVCAR-5 ovarian): 5.84 µM
- TGI (OVCAR-5 ovarian): 11 µM
- GI50 (SW-620 colon): 1.2 µM
- TGI (SW-620 colon): 4.07 µM
- GI50 (LOX IMVI melanoma): 1.06 µM
- TGI (LOX IMVI melanoma): 2.27 µM
- GI50 (HL-60(TB) leukemia): 0.248 µM
- TGI (HL-60(TB) leukemia): 0.659 µM
- GI50 (MALME-3M melanoma): 2.29 µM
- TGI (MALME-3M melanoma): 5.15 µM
- GI50 (T-47D breast): 1.17 µM
- TGI (T-47D breast): 4.5 µM
- GI50 (IGROV1 ovarian): 0.334 µM
- TGI (IGROV1 ovarian): 2.11 µM
- GI50 (HS 578T breast): 1.66 µM
- TGI (HS 578T breast): 4.61 µM
- GI50 (HCT-116 colon): 2.34 µM
- GI50 (DU-145 prostate): 0.454 µM
- TGI (DU-145 prostate): 1.93 µM
- GI50 (RXF 393 renal): 0.294 µM
- TGI (RXF 393 renal): 1.21 µM
- GI50 (NCI-H23 lung): 1.54 µM
- TGI (NCI-H23 lung): 3.01 µM
- GI50 (CCRF-CEM leukemia): 0.234 µM
- TGI (CCRF-CEM leukemia): 0.621 µM
- GI50 (KM12 colon): 1.87 µM
- TGI (KM12 colon): > 21.6 µM
- GI50 (CAKI-1 renal): 1.55 µM
- TGI (CAKI-1 renal): 3.3 µM
- GI50 (NCI-H522 lung): 1.63 µM
- TGI (NCI-H522 lung): 3.18 µM
- GI50 (BT-549 breast): 1.6 µM
- TGI (BT-549 breast): 3.09 µM
- GI50 (SN12C renal): 1.89 µM
- TGI (SN12C renal): 3.39 µM
- GI50 (TK-10 renal): 1.85 µM
- TGI (TK-10 renal): 4.49 µM
- GI50 (A498 renal): 1.93 µM
- TGI (A498 renal): 3.56 µM
- GI50 (SF-268 CNS): 1.2 µM
- TGI (SF-268 CNS): 3.86 µM
- GI50 (SNB-75 CNS): 1.46 µM
- TGI (SNB-75 CNS): 2.91 µM
- GI50 (HOP-62 NSCLC): 2.2 µM
- TGI (HOP-62 NSCLC): 10.4 µM
- GI50 (M14 melanoma): 2.9 µM
- TGI (M14 melanoma): 7.29 µM
- GI50 (MOLT-4 leukemia): 0.34 µM
- TGI (MOLT-4 leukemia): 1.56 µM
- GI50 (EKVX NSCLC): 2.07 µM
- TGI (EKVX NSCLC): 4.05 µM
- GI50 (PC-3 prostate): 1.17 µM
- GI50 (NCI/ADR-RES ovarian): 14 µM
- TGI (NCI/ADR-RES ovarian): 36.2 µM
- GI50 (MCF7 breast): 0.3 µM
- TGI (MCF7 breast): 3.05 µM
- GI50 (MDA-MB-435): 2.38 µM
- TGI (MDA-MB-435): 6.53 µM
- GI50 (K-562 leukemia): 0.308 µM
- TGI (K-562 leukemia): 1.07 µM
- GI50 (NCI-H460 lung): 0.672 µM
- TGI (NCI-H460 lung): 4.08 µM
- GI50 (UO-31 renal): 1.27 µM
- TGI (UO-31 renal): 2.98 µM
- GI50 (HCC-2998 colon): 1.81 µM
- TGI (HCC-2998 colon): 3.23 µM
- GI50 (UACC-257 melanoma): 1.69 µM
- TGI (UACC-257 melanoma): 3.21 µM

Compound: Cc1cc2c(cc1C)[n+](Cc1ccc3ccccc3c1)cn2Cc1ccc2ccccc2c1
- GI50 (UACC-62 melanoma): 0.459 µM
- TGI (UACC-62 melanoma): 1.79 µM
- GI50 (SK-MEL-5 melanoma): 1.05 µM
- TGI (SK-MEL-5 melanoma): 2.23 µM
- GI50 (OVCAR-5 ovarian): 1.13 µM
- TGI (OVCAR-5 ovarian): 2.43 µM
- GI50 (SK-OV-3 ovarian): 1.5 µM
- TGI (SK-OV-3 ovarian): 2.9 µM
- GI50 (ACHN renal): 1.65 µM
- TGI (ACHN renal): 3.08 µM
- GI50 (NCI/ADR-RES ovarian): 6.6 µM
- TGI (NCI/ADR-RES ovarian): 64.4 µM
